Data published in US20090123501A1, “INHIBITION OF THE SH2-DOMAIN CONTAINING PROTEIN TYR-PHOSPHATASE, SHP-1, TO ENHANCE VACCINES” (Baylor College of Medicine, priority 2007, published 2009).

Columns and labels:
[1] = tested on: BMDCs; test: In vitro transwell DC migration to CCL21; assay type: cell-based, C57BL/6 mice; settings: BMDCs transduced 48 hours, 100 ng/mL CCL21, 3 hours transwell
Procedure: Primary bone marrow-derived dendritic cells (BMDCs) were prepared from wild type mice in the following manner: Bone marrow cells were flushed from the femurs and tibias of C57BL/6 mice and cultured for 6 days in RPMI media supplemented with 10% FBS, 10 ng/mL IL-4 and 10 ng/mL GMCSF along with antibiotics. On day 6, dendritic cells (DCs) were either purified by magnetic bead assisted cell sorting (MACS; Miltenyi Biotec, Auburn, Calif.) prior to adenoviral transduction, or used as unpurified bulk DCs that were then transduced with adenovirus.
For DCs to initiate an immune response, they must capture antigen in the periphery and then migrate to the lymph nodes where they stimulate antigen specific T cells. To determine if SHP-1 signaling could affected the ability of DCs to migrate to draining lymph nodes, trafficking studies were performed both in vitro and in vivo. For the in vitro DC migration assays, unpurified bulk BMDCs were transduced with either Ad5-SHP1-shRNA or Ad5-scrambled-shRNA for 48 hours or left untreated. Half of the untreated cells were treated with 1 μg/mL LPS for 24 hours. Cells were collected and washed in serum-free media (SFM) and resuspended at 5×10^6 cells/mL. […] BMDCs migrating into the lower chamber were counted using a hematocytometer.

[2] = tested on: BMDCs; test: In vivo DC migration out of the footpad, luciferase IVIS imaging; parameters: species or system albino C57BL/6 mice; settings: 2×10^6 transduced BMDCs injected into footpad
Procedure: To determine if SHP-1 inhibition enhanced DC migration in vivo, BMDCs were prepared as described above but were transduced with an adenovirus expressing a clickbeetle red-shifted luciferase in addition to either Ad5-SHP-1-shRNA or Ad5-scrambled-shRNA. Transduced cells (2×10^6) were injected into the contralateral footpads of tyrosinase-deficient albino C57BL/6 mice (B6(Cg)-Tyr^c-2J/J, Jackson Laboratory). At the specified intervals mice were injected i.p. with 100 μl of 10 mg/mL luciferin and imaged in vivo using IVIS® (Caliper Life Sciences, Hopkinton, Mass.).

Sequence: CACCGGAGCATGACACAGCAGAATACGAATATTCTGCTGTGTCATGCTCC (chemistry not given here) [Ad5-SHP-1-shRNA]
- migration index (migration to CCL21 relative to migration without CCL21) [1]: not significantly different from that of untreated cells
- DCs in the footpad at 24 hours post-injection [2]: undetectable in the footpad by 24 hours post injection
- time by which DCs are seen to migrate out of the footpad ([2]; post-injection): ≤ 2 h
